Experimental data as given in patent US9969617B2, “Material system containing endoperoxide with adaption of decomposition, and applications” (priority 2009, dated 2018).

Assays:
[1] = system: cancer cells; experiment: killing of cancer cells, cytostatic effect confirmed using the crystal violet test; format: cell-based; conditions: endoperoxide in liposomes
From the text: A further molecule 22 forming endoperoxide has an additional hydroxyl group which with the cage wall can form hydrogen bridges (preferably in PVB nanoparticles, in PVB films or ethyl cellulose nanoparticles), which likewise causes an increase in the decomposition times.

[2] = PVB matrix, 37° C.

| Structure (SMILES) | killing of the cancer cells [1] | decomposition time of curve 27, factor longer than DMN in liquids ([2]; after renewed endoperoxide formation, slow component (curve 27)) [factor] | half-life from curve 24 greater than that for DMN in organic solvent ([2]; curve 24 versus DMN in organic solvent) | decomposition time from curve 25, factor greater ([2]; first decomposition, slow component (curve 25), compared with DMN in organic solvent) [factor] |
| --- | --- | --- | --- | --- |
| CC12C=CC(C)(OO1)c1ccccc12 [DMN endoperoxide, 1,4-dimethylnaphthalene endoperoxide] | not | > 30 | approximately 30% | ~6 |
| Cc1cccc2c1C1(C)C=CC2(C)OO1 (centres unmarked) [TMN endoperoxide] | killing of the cancer cells was ascertained |  |  |  |
